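Five concentrations, 48 hours, 96-well plates. Here, GI50 denotes the concentration required for 50% inhibition of growth.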 Calls of active or inactive are those of the source. No stated cut-off is given here; in the data, active = GI50 up to about 1.1 µM and inactive = higher.

Common to all, as to experiment: inhibition of tumour cell growth, NCI panel, 48 h
Assay [1] has as its system U-251.
For assay [2], the system named is A549.
For assay [3], the system named is SK-MEL-5.
Assay [4] deals with UACC-257.
Assay [5] relates to HCT-15.
Assay [6] concerns MOLT-4.
Assay [7] relates to SR.
The test system of assay [8] is NCI-H460.
The test system of assay [9] is HL-60.
For assay [10], the system named is Malme-3M.
In assay [11] the test system is SK-OV-3.
For assay [12], the system named is CCRF-CEM.
Assay [13] has as its system LOX IMVI.
For assay [14], the system named is ACHN.
Assay [15] deals with RPMI-8226.
The test system of assay [16] is EKVX.
For assay [17], the system named is OVCAR-4.
In assay [18] the test system is UACC-62.
Assay [19] has as its system K562.
For assay [20], the system named is SNB-75.

Consider `C=Cc1cnc([N+](=O)[O-])n1C`, for which the GI50 in [1] was > 100 µM (inactive); in assay [2], 56 µM (inactive); in [3] it was 83.2 µM (inactive); in assay [4] it was > 100 µM (inactive); in assay [5], 50.2 µM; in assay [6], 53.8 µM (inactive). The GI50 was 20.7 µM (inactive) in [7]; 56.8 µM (inactive) in assay [8]; 48.6 µM (inactive) in [9]; 38.1 µM (inactive) in assay [10]; 71 µM (inactive) in assay [11]; 46.1 µM (inactive) in assay [12]. Also, the GI50 in [13] was 87.5 µM (inactive); in assay [14], 52 µM (inactive); in assay [15], 40.1 µM (inactive); in assay [16], > 100 µM (inactive).

In the case of `C=CC[N+]12CN3CN(CN(C3)C1)C2`, the GI50 in [1] was 31.9 µM (inactive); in [2] it was 31.3 µM (inactive); in [3], 36.6 µM (inactive); in assay [17], 26.2 µM (inactive); in assay [4], 24.5 µM (inactive); in assay [5], 22.6 µM. Besides, the GI50 was 27.4 µM (inactive) in assay [18]; 33.4 µM (inactive) in [6]; 24.2 µM (inactive) in [8]; 35.3 µM (inactive) in assay [9]; 18.7 µM (inactive) in assay [10]; > 100 µM (inactive) in [11]. The GI50 in [12] was 5.83 µM (inactive); in assay [13] it was 27 µM (inactive); in assay [14], 21.3 µM (inactive); in assay [15] it was 4.14 µM (inactive); in [19] it was 19.2 µM (inactive); in assay [20], 25.1 µM (inactive). The GI50 in assay [16] is 20.4 µM (inactive).

As to `O=C1N(C2CCCCC2)CC12CCCCC2`, the GI50 in assay [1] was > 100 µM (inactive); in [2], > 100 µM (inactive); in assay [3], > 100 µM (inactive); in [17] it was > 100 µM (inactive); in assay [5], greater than 100 µM; in assay [18] it was > 100 µM (inactive). Further, the GI50 in assay [6] is > 100 µM (inactive); in assay [8] it was > 100 µM (inactive); in assay [9], 41.2 µM (inactive); in [10], > 100 µM (inactive); in assay [11] it was > 100 µM (inactive); in assay [12], > 100 µM (inactive). Besides, the GI50 in [13], in assay [14], in assay [15], in assay [19], in assay [20] and in assay [16] was > 100 µM (inactive) each time.

`C(=C/c1nc2ccccc2o1)/c1ccc2c(c1)OCO2`: the GI50 in assay [1] is 17.5 µM (inactive); in assay [2], 18.7 µM (inactive); in [3], 8.41 µM (inactive); in [17], 13.1 µM (inactive); in [4] it was 12.7 µM (inactive); in [5], 8.18 µM. Further, the GI50 in [18] was 2.62 µM (inactive); in assay [6], 45.7 µM (inactive); in [8], 21.2 µM (inactive); in [9], 16.8 µM (inactive); in assay [10] it was 27.3 µM (inactive); in assay [11], 27.2 µM (inactive). Further, the GI50 in [12] is > 67.9 µM (inactive); in [13], 6.59 µM (inactive); in assay [15], 26.4 µM (inactive); in assay [19], 5.22 µM (inactive); in assay [20] it was 21.1 µM (inactive); in assay [16], 55.5 µM (inactive).

For the molecule `O=C1C(Cl)=C(N2CCSCC2)C(=O)c2c(O)ccc(O)c21`, the GI50 in [2] was 0.469 µM (active); in assay [3] it was 0.451 µM (active); in [17] it was 0.552 µM (active); in [4] it was 1.51 µM (inactive); in [18], 0.525 µM (active); in assay [6] it was 0.641 µM (active). The GI50 was 0.292 µM (active) in [7]; 0.494 µM (active) in assay [8]; 0.382 µM (active) in assay [10]; 0.581 µM (active) in assay [11]; 0.186 µM (active) in assay [13]; 0.424 µM (active) in [14]. The GI50 is 0.1 µM (active) in assay [15] and 1 µM (active) in [20].

For the molecule `CCOC(=O)c1cn2c(n1)sc1cc([N+](=O)[O-])ccc12`, the GI50 in assay [1] is 76 µM (inactive); in [2], > 100 µM (inactive); in assay [3], > 100 µM (inactive); in assay [17], > 100 µM (inactive); in assay [4], > 100 µM (inactive); in [5] it was greater than 100 µM. Moreover, the GI50 in assay [18], in [6], in [7], in [8], in assay [10] and in [11] was > 100 µM (inactive) throughout. The GI50 in assay [12] was > 100 µM (inactive); in assay [13], > 100 µM (inactive); in assay [14], 92.3 µM (inactive); in [15], > 100 µM (inactive); in [19], > 100 µM (inactive); in assay [20] it was 58.2 µM (inactive). Besides, in assay [16], the GI50 is > 100 µM (inactive).

With `CN(C)/N=C(/c1nc2ccc(Cl)cc2nc1O)C(O)c1ccc(C(O)/C(=N\N(C)C)c2nc3ccc(Cl)cc3nc2O)cc1` (stereo unspecified), the GI50 in assay [2] is > 100 µM (inactive); in assay [3] it was > 100 µM (inactive); in assay [17] it was > 100 µM (inactive); in assay [4], > 100 µM (inactive); in [18], > 100 µM (inactive); in [6], 52.4 µM (inactive). Further, the GI50 in assay [7] is 38 µM (inactive); in [8], > 100 µM (inactive); in assay [9], 27.9 µM (inactive); in assay [10] it was > 100 µM (inactive); in assay [11], > 100 µM (inactive); in assay [12], 6.43 µM (inactive). Moreover, the GI50 is > 100 µM (inactive) in assay [14], 14.1 µM (inactive) in assay [15], 60.3 µM (inactive) in [19] and > 100 µM (inactive) in assay [16].

For the molecule `CC(=O)/C=C1\CC(=O)N(C)c2ccccc2N1`, the GI50 was > 100 µM (inactive) in assay [1]; > 100 µM (inactive) in assay [2]; 0.57 µM (active) in assay [3]; > 100 µM (inactive) in assay [17]; > 100 µM (inactive) in assay [18]; > 100 µM (inactive) in assay [6]. For the same molecule, the GI50 in assay [7], in [8], in assay [10], in assay [11], in assay [12] and in [13] was > 100 µM (inactive) throughout. Further, the values for the GI50 in assay [19], in [20] and in assay [16] were > 100 µM (inactive), 0.0723 µM (active) and > 100 µM (inactive), respectively.

In the case of `CSC(=N)N1N=C2/C(=C/c3ccccc3)CCC[C@H]2[C@H]1c1ccccc1`, the GI50 in assay [1] is 12 µM (inactive); in [2] it was 4.49 µM (inactive); in [17] it was 2.58 µM (inactive); in assay [4], 2.37 µM (inactive); in assay [5] it was 6.52 µM; in [18], 10.9 µM (inactive). The GI50 is 2.69 µM (inactive) in assay [6]; 1.85 µM (inactive) in assay [7]; 5.68 µM (inactive) in assay [8]; 1.72 µM (inactive) in assay [9]; 1.93 µM (inactive) in [10]; 3.68 µM (inactive) in assay [11]. The GI50 in assay [12] is 2.6 µM (inactive); in [13] it was 4.19 µM (inactive); in assay [14] it was 3.36 µM (inactive); in assay [15], 2.18 µM (inactive); in assay [19], 1.91 µM (inactive); in assay [16], 4.56 µM (inactive).

As for `COc1cc(C)cc(OC)c1/C=C/C(=O)O`, the GI50 is > 100 µM (inactive) in assay [1]; > 100 µM (inactive) in assay [2]; > 100 µM (inactive) in assay [3]; > 100 µM (inactive) in [17]; > 100 µM (inactive) in [4]; greater than 100 µM in [5]. Further, the GI50 in assay [18], in assay [6], in assay [7], in assay [8], in [9] and in assay [10] was > 100 µM (inactive) in each case. For the same molecule, the GI50 in assay [13], in assay [14], in [15], in assay [19] and in assay [16] was > 100 µM (inactive) throughout.

As to `COc1ccc(C2C3C(=O)C=CC(=O)C3[C@@H]2C)cc1OC` (stereo partly specified), the GI50 in assay [1] was > 100 µM (inactive); in assay [2], > 100 µM (inactive); in assay [3], > 100 µM (inactive); in [17], > 100 µM (inactive); in assay [4] it was > 100 µM (inactive); in [5] it was 23.6 µM. Besides, the GI50 in assay [18] was > 100 µM (inactive); in [6], 36 µM (inactive); in [8] it was > 100 µM (inactive); in assay [9], > 10 µM (inactive); in assay [10] it was > 100 µM (inactive); in assay [11], > 100 µM (inactive). The GI50 was > 10 µM (inactive) in [12]; 42.3 µM (inactive) in assay [13]; 47.6 µM (inactive) in [14]; 27.6 µM (inactive) in assay [15]; 62.7 µM (inactive) in assay [19]; 22.1 µM (inactive) in assay [20]. In addition, in assay [16], the GI50 was > 100 µM (inactive).

For the molecule `C=C1C(=O)O[C@@H]2C[C@@]3(C)[C@H](O)CCC(=C)[C@@H]3C[C@H]12` [ASPERILIN], the GI50 in assay [1] was 13.4 µM (inactive); in assay [2], 21.5 µM (inactive); in assay [3], 4.26 µM (inactive); in assay [17] it was 11.8 µM (inactive); in assay [5] it was 11.3 µM; in assay [18], 5.96 µM (inactive). Also, the GI50 was 3.14 µM (inactive) in assay [7]; 6.14 µM (inactive) in assay [8]; 3.11 µM (inactive) in assay [10]; 22.3 µM (inactive) in assay [11]; 3.01 µM (inactive) in assay [12]; 5.27 µM (inactive) in assay [13]. Further, the GI50 in assay [14] is 14.4 µM (inactive); in assay [15] it was 3.46 µM (inactive); in assay [19] it was 2.39 µM (inactive); in assay [20] it was 3.69 µM (inactive); in assay [16] it was 16.1 µM (inactive).

(Values after ChEMBL document CHEMBL1201862, “PubChem BioAssay data set” (2004).)
